How the values were obtained:
[1] = tested on: BTK Activity in RAMOS B Cells; test: Assay to determine BTK activity in RAMOS B cells (anti-IgM, FLIPR Calcium 6); assay type: cell-based; conditions: Homo sapiens, Ramos, EC80 anti-IgM, FLIPR calcium read
Method: On the day before assay, Ramos B cells were plated in plating medium (RPMI1640 medium containing 1% FBS and 1× pencillin-streptomycin). On the day of the assay, 2× dye solution was prepared following the manual of the FLIRP Calcium 6 Assay Kit: Dilute the dye with assay buffer (20 mM HEPES in 1×HBSS, pH7.4); Add probenecid to the final concentration of 5 mM; vortex vigorously for 1-2 minutes. Cells were collected by centrifuging, and the pellet was resuspended in plating medium. After counting, cells were resuspended at a density of 3×10^6/ml in plating medium. Equal volume of 2× dye solution was added to the cell suspension. Cells were then plated at 20 μl/well into a 384-well poly-D-lysine coated plate. Plate was centrifuged at 1000 rpm for 3 minutes and then incubated at 37° C. for 2 hours followed by an additional 15-minute incubation at 25° C. Compounds were prepared at 3× concentration in dilution buffer (20 mM HEPES and 0.1% BSA in 1×HBSS, pH 7.4). Serially diluted compound was transferred from source plate to a 384-well compound plate by using an Echo 550 (Labcyte). 20 μl/well compound dilution buffer was added to the compound plate and mixed on plate shaker for 2 mins. 4×EC80 of Anti-IgM (Jackson ImmunoResearch) was prepared in dilution buffer and 20 μl/well was added to a new 384-well compound plate. After 60 mins of incubation at 25° C. in the dark; cell plate, compound plate containing 4×EC80 of anti-IgM and FLIPR tips were placed into FLIPR (Molecular Devices). 10 ul/well of 4×EC80 anti-IgM was transferred to the cell plate by FLIPR. Plates were read for 160 sec with 1 sec interval.
With respect to Ramos activity, Table 9 lists activity as follows: • “A” denotes an IC50 of less than 10 nM; • “B” denotes an IC50 of from 10 nM to less than 100 nM; and • “C” denotes and IC50 of 100 nM or more.

BTK [2] = biological target: T1, BTK (Homo sapiens, UniProt Q06187); test: Assay to determine activity against BTK (EZ reader, FLPeptide); assay type: biochemical; design: purchased Carna; conditions: ATP (1 mM), BTK (2 nM), room temperature for 90 minutes
T1 sequence (Q06187 whole entry): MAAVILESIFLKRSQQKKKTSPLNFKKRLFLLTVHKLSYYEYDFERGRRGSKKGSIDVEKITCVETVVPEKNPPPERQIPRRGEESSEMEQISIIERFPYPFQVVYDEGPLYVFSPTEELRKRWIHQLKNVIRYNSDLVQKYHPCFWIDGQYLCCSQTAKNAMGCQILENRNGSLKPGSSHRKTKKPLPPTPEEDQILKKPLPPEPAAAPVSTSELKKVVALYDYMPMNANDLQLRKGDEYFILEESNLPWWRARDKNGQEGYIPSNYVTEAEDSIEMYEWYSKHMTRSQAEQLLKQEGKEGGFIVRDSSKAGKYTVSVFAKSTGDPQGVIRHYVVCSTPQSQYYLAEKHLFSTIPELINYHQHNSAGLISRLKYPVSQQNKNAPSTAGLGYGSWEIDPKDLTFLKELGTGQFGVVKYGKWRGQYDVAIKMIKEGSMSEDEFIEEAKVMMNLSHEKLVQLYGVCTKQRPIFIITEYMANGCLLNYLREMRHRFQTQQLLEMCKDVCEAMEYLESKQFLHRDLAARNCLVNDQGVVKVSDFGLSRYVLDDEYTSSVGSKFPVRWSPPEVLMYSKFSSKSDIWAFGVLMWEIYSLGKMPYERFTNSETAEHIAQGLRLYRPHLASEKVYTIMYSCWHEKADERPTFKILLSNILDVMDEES
Method: Solutions of compounds (test or control) in DMSO were prepared at the desired concentrations, and serially diluted to 11 concentrations by 3-fold dilution in 384pp-plate using TECAN EVO200. 20 nL of stock were transferred to 384 plate using Echo550. DMSO was used as vehicle control.
Two separate solutions were prepared—an ATP solution containing MgCl2 (10 mM), Brij-35 (0.01%), DTT (2 mM), BSA (0.05%), EGTA (1 mM), HEPE (pH7.5) (50 mM), FLPeptide (6 uM) and ATP (4 mM); and a BTK solution containing MgCl2 (10 mM), Brij-35 (0.01%), DTT (2 mM), BSA (0.05%), EGTA (1 mM), HEPE (pH7.5) (50 mM) and BTK (2.67 nM). […] (Note the final volume of each well was 20 uL containing MgCl2 (10 mM), Brij-35 (0.01%), DTT (2 mM), BSA (0.05%), EGTA (1 mM), HEPE (pH7.5) (50 mM), FLPeptide (1.5 uM), ATP (1 mM) and BTK (2 nM).
The plates were incubated at room temperature for 90 minutes and then stopping buffer added (75 uL, containing 0.5 M EDTA) to terminate the reaction. Samples from each well were analyzed using EZ reader. The % remaining activity was calculated using read conversion ratio (CR) according to the equation: […]
XLFit (equation 201) was used to calculate IC50s by floating both bottom and top.
With respect to BTK activity, Table 4 lists activity as follows: • “A” denotes an IC50 of less than 10 nM, • “B” denotes an IC50 of from 10 nM to less than 100 nM; and • “C” denotes and IC50 of 100 nM or more.

BTK [3] = biological target: T1, BTK; test: Assay to determine BTK inactivation rate in human whole blood (ELISA of unoccupied BTK); assay type: cell-based; design: Human whole blood is obtained from StemExpress; tissue StemExpress; host or cells: human whole blood; conditions: 37° C., 5, 15, 30, 60 minutes; for kinact/KI: read-out: BTK hWB Kinact/Ki
Method: Human Whole Blood Compound Treatment and Lysis
Human whole blood is obtained from StemExpress and kept at ambient temperature until the time of the experiment. […] This is prepared fresh each experimental day. […] Compounds are reconstituted to stocks of 10 mM and are diluted in two-fold serial dilutions to generate an 8-point curve in DMSO, with the last point being DMSO only, creating a 100× dilution series. A working 10× dilution series is created using 1.0 μL of the prepared DMSO titration, 100×, into […] 1×PBS in order to keep the DMSO constant. The human whole blood is added in the volume of 225 μL per well in a new 96w v-bottom plate, where one column of eight wells is sufficient for testing one compound. For compound treatment, 25 μL of 10× dilution series in PBS is added to the 225 μL whole blood, followed by briefly pipetting up and down twice. The plates are covered with lids and incubated at 37° C. for 5, 15, 30, 60 minutes. At each timepoint, 30 μL of treated blood is pulled from each column and added to preloaded collection plates that contain 30 μL of supplemented lysis buffer and mixed briefly. The collected and lysed samples shake on rotator for 60 minutes at room temperature. These samples are used fresh for detection via ELISA, and remaining sample is frozen at −80° C. if a repeat is necessary.
ELISA: Determining Amount of Unoccupied BTK
All streptavidin pre-coated plates (R&D Systems, #CP004) are brought to room temperature while samples are lysing. Assay Buffer 1, 1×PBS+0.05% Tween 20+1% BSA is prepared and stored at 4° C. when not in use. Using this Assay Buffer, assay buffer+1× protease/phosphatase inhibitor cocktail (PICs) is prepared in the amount needed for all samples. Assay Buffer+PICs in the volume of 90 μL/well is added to the ELISA plate. Lysed blood sample (10 μL) is added to the ELISA plate. BTK recombinant protein dilutions are prepared in assay buffer+PICS for use as a μM). The standard is loaded into the ELISA plate at 100 μL/well, in duplicate. These samples and standards remain in the plate, sealed, overnight at 4° C. The following day, the plate is washed four times with 1× Wash Buffer (1×PBS+0.05% Tween 20) using a plate washer. The plate is inverted to expel all fluid each time and blotted on clean paper towels to remove remaining liquid. Assay Buffer 2 is prepared (1×PBS+0.05% Tween 20+0.05% BSA) and kept at 4° C. when not in use. […] Diluted a-BTK antibody is added at 100 μl/well. The plate is covered with adhesive film and incubated for 90 minutes at room temperature. The plate is washed four times with 1× Wash Buffer (1×PBS+0.05% Tween 20) using a plate washer. The plate is inverted to expel all fluid each time and blotted on clean paper towels to remove remaining liquid. […] The diluted antibody is added at 100 μl/well. The plate is covered with adhesive film and incubated for one hour at room temperature. The plate is washed four times with 1× Wash Buffer using a plate washer. The plate is inverted to expel all fluid each time and blotted on clean paper towels to remove remaining liquid. […] The plate is incubated at room temperature in the dark for −5-10 minutes. The reaction is stopped by adding 50 μl/well 2N sulfuric acid (H2SO4) (R&D Systems, #DY994). The plate is read in a plate reader at the wavelengths […] and 570 nm (correction wavelength). Using Graphpad Prism, an XY table+graph is created, listing 0-60 minutes as X axis and concentration as Y axis. A One Phase Decay model fit is applied to the data. Checking Results table, the K values are obtained and new XY table+graph are created. Concentration is assigned to the X axis and K values from first analysis are entered. The Michaelis-Menten equation is applied to the data.

[4] = Plasma and total brain concentrations at 1 h post a single oral administration to female C57BL/6 mice; assay type: in vivo; conditions: mouse, 1 h post single oral 10 mg/kg, LC-MS/MS, read-out: Brain:plasma ratio
Method: Determination of Plasma and Total Brain Concentrations at 1 h Post a Single Oral Administration of Test Compound to Female C57BL/6 Mice
The appropriate amount of test article was dissolved 10% dimethylacetamide (DMA)/90% (20% hydroxypropyl-b-cyclodextrin (HP-β-CD) w/v in water to obtain a final concentration of 1 mg/mL for oral dosing. Sonication, vortex, and homogenization was used as needed. Three female C57BL/6 mice aged 7-9 weeks (20-30 grams) were dosed by oral gavage 10 mg/kg solution of the test article.
Concentrations of representative test compounds in the plasma and brain samples (using plasma and brain homogenate standard curve for all samples appropriately) were analyzed using LC-MS/MS. With respect to the brain:plasma ratio, Table 11 lists the results as follows: • “A” denotes a ratio >0.5; • “B” denotes a ratio between 0.1 and 0.5; and • “C” denotes a ratio <0.1.

C=CC(=O)N1CCc2c(cccc2-c2c(F)cc(C(N)=O)c3[nH]c(C)c(Cl)c23)C1 [Compound 20a, 4-(2-acryloyl-1,2,3,4-tetrahydroisoquinolin-5-yl)-3-chloro-5-fluoro-2-methyl-1H-indole-7-carboxamide]
IC50 [1]: < 10 nM | IC50 (BTK [2]): < 10 nM | kinact/KI (BTK [3]): < 1670 M⁻¹ s⁻¹

CC#CC(=O)N1CCC[C@H]1c1nc(-c2ccc(C(=O)Nc3ccccn3)cc2)c2c(N)nccn12 [Acalabrutinib, reference compound]
Kp at 1 h [4]: < 0.1 | kinact/KI (BTK [3]): < 1670 M⁻¹ s⁻¹

C=CC(=O)N1CCC[C@H](c2c(F)c(F)c(C(N)=O)c3[nH]c(C)c(Cl)c23)C1 [Compound 15, (R)-4-(1-acryloylpiperidin-3-yl)-3-chloro-5,6-difluoro-2-methyl-1H-indole-7-carboxamide]
IC50 [1]: 10 to 100 nM | IC50 (BTK [2]): 10 to 100 nM | kinact/KI (BTK [3]): > 16700 M⁻¹ s⁻¹

C=CC(=O)N[C@H]1C[C@H](F)CN(c2c(F)cc(C(N)=O)c3[nH]c(C)c(C)c23)C1 [Compound 36, 4-((3S,5S)-3-acrylamido-5-fluoropiperidin-1-yl)-5-fluoro-2,3-dimethyl-1H-indole-7-carboxamide]
IC50 [1]: < 10 nM | IC50 (BTK [2]): < 10 nM | kinact/KI (BTK [3]): > 16700 M⁻¹ s⁻¹

C=CC(=O)N1CCC[C@H](c2c(F)cc(C(N)=O)c3[nH]c(C)c(Cl)c23)C1 [Compound 2b, (R)-4-(1-acryloylpiperidin-3-yl)-3-chloro-5-fluoro-2-methyl-1H-indole-7-carboxamide]
IC50 [1]: 10 to 100 nM | IC50 (BTK [2]): 10 to 100 nM | kinact/KI (BTK [3]): 1670 to 16700 M⁻¹ s⁻¹

CC#CC(=O)N[C@H]1C[C@H](F)CN(c2c(F)cc(C(N)=O)c3[nH]c(C)c(Cl)c23)C1 [Compound 28, 4-((3S,5S)-3-(but-2-ynamido)-5-fluoropiperidin-1-yl)-3-chloro-5-fluoro-2-methyl-1H-indole-7-carboxamide]
IC50 [1]: < 10 nM | IC50 (BTK [2]): < 10 nM | kinact/KI (BTK [3]): 1670 to 16700 M⁻¹ s⁻¹

C=CC(=O)N1CCC2CCN(c3c(F)cc(C(N)=O)c4[nH]c(C)c(C)c34)CC21 (centres unmarked) [Compound 32, 4-(1-acryloyloctahydro-6H-pyrrolo[2,3-c]pyridin-6-yl)-5-fluoro-2,3-dimethyl-1H-indole-7-carboxamide]
IC50 [1]: 10 to 100 nM | IC50 (BTK [2]): 10 to 100 nM | kinact/KI (BTK [3]): < 1670 M⁻¹ s⁻¹

C=CC(=O)N1CCC[C@@H](n2nc(-c3ccc(Oc4ccccc4)cc3)c3c(N)ncnc32)C1 [Ibrutinib, reference compound]
Kp at 1 h [4]: < 0.1

C=CC(=O)N1CCC=C(c2c(F)c(F)c(C(N)=O)c3[nH]c(C)c(Cl)c23)C1 [Compound 4, 4-(1-acryloyl-1,2,5,6-tetrahydropyridin-3-yl)-3-chloro-5,6-difluoro-2-methyl-1H-indole-7-carboxamide]
IC50 [1]: < 10 nM | IC50 (BTK [2]): < 10 nM | kinact/KI (BTK [3]): > 16700 M⁻¹ s⁻¹

CC#CC(=O)N[C@H]1CCCN(c2c(F)cc(C(N)=O)c3[nH]c(C)c(C)c23)C1 [Branebrutinib, reference compound]
Kp at 1 h [4]: < 0.1 | kinact/KI (BTK [3]): > 16700 M⁻¹ s⁻¹

C=CC(=O)N1CCC2CCN(c3c(F)cc(C(N)=O)c4[nH]c(C)c(C)c34)CC21 (single isomer, unassigned) [Compound 32a, 4-(1-acryloyloctahydro-6H-pyrrolo[2,3-c]pyridin-6-yl)-5-fluoro-2,3-dimethyl-1H-indole-7-carboxamide]
IC50 [1]: 10 to 100 nM | IC50 (BTK [2]): 10 to 100 nM | BTK hWB Kinact/Ki (BTK [3]): A (a Kinact/Ki >10×10^−4 nM^−1 min^−1)

— patent US12448363B2, “Kinase inhibitors” (Vidya Therapeutics, Inc., priority 2020, dated 2025)
